# Experimental data as given in EP2998295A1, “Aryl substituted naphthyl sulfonamide derivatives as keap-1 modulators for the treatment of diabetes, obesity, dyslipidemia and related disorders” (SANOFI, priority 2014, dated 2016).
# Target: T1, human Keap1 kelch domain (amino acids Ala321 -Thr609) (Homo sapiens, UniProt Q14145)
# T1 construct: human Keap1 kelch domain (amino acids Ala321 -Thr609)
# Experiment: Keap1-Nrf2 peptide binding assay (fluorescence polarisation)
# Conditions: Keap1 kelch domain 20 nM, fluorescently labeled Nrf2 peptide 50 nM
# Method: A fluorescence polarisation assay was used to measure binding of the human Keap1 kelch domain (amino acids Ala321 -Thr609) to a fluorescently labeled peptide containing a Keap1 binding site of human Nrf2 (Alexa633-AFFAQLQLDEETGEFL; JPT Technologies, Berlin, Germany). Two microliters of test compound in reaction buffer (phosphate-buffered saline, 2 mM DL-dithiothreitol, 0.015 % (v/v) Brij-35) containing 6 % (v/v) DMSO were mixed with two microliters of the Keap1 kelch domain in reaction buffer in a black 384-well small volume microtiter plate and incubated at ambient temperature for 15 minutes. Thereafter, two microliters were added of the fluorescently labeled Nrf2 peptide in reaction buffer, and the mixture was incubated for a further 30 minutes at ambient temperature. Final concentrations of the Keap1 kelch domain and the fluorescently labeled Nrf2 peptide were 20 nM and 50 nM, respectively.
# Fluorescence polarization (FP) was measured at excitation and emission wavelengths of 635 nm and 660 nm, respectively. Positive controls for binding (two microliters of reaction buffer containing 6 % (v/v) DMSO instead of test compound in the same buffer) and negative controls (as positive controls, but without Keap1 kelch domain) were included on each microtiter plate. Data were expressed as percent-inhibition values: percent inhibition = 100⋅(1(|FPcompound-FPnegative control|)/(|FPpositive control-FPnegative control|)) [formula]
# IC50 values were determined by testing different compound concentrations and fitting the resulting percent-inhibition values to the following equation using XLFit4: percent inhibition = A + (B-A)/(1 + (((IC50)/([Compound])))^D) [formula]
# Parameter A was set to zero, pre-fit values for parameters B and D were set to 100 and 1, respectively.
# T1 sequence (Q14145 321-609): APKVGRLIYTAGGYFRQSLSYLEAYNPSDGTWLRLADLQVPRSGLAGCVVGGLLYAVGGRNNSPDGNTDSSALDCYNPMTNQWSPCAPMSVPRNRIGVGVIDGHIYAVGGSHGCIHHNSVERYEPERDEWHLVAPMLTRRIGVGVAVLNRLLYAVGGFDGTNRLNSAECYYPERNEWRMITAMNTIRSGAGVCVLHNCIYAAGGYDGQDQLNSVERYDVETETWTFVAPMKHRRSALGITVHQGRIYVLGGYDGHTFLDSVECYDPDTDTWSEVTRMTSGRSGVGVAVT
row,Structure (SMILES),IC50
1,"Cc1cc(C)c(C)c(S(=O)(=O)Nc2cc(-c3cccc(C(=O)O)c3)cc3ccccc23)c1C [Example 4, 3-[4-[(2,3,5,6-tetramethylphenyl)sulfonylamino]-2-naphthyl]benzoic acid]",1500 nM
2,"Cc1cc(C)c(C)c(S(=O)(=O)Nc2cc(-c3ccc(C(=O)O)cc3)cc3ccccc23)c1C [Example 1, 4-[4-[(2,3,5,6-tetramethylphenyl)sulfonylamino]-2-naphthyl]benzoic acid]",2500 nM
3,"CC(=O)Nc1cc(C(=O)O)cc(-c2cc(NS(=O)(=O)c3c(C)c(C)cc(C)c3C)c3ccccc3c2)c1 [Example 9, 3-acetamido-5-[4-[(2,3,5,6-tetramethylphenyl)sulfonylamino]-2-naphthyl]benzoic acid]",400 nM

# Same assay, conditions: Keap1 kelch domain 20 nM, fluorescently labeled Nrf2 peptide 50 nM, read-out: IC50
row,IC50,Structure (SMILES)
1,5700 nM,"Cc1cc(C)c(C)c(S(=O)(=O)Nc2cc(-c3cc(C(=O)O)n(C)n3)cc3ccccc23)c1C [Example 11, 2-methyl-5-[4-[(2,3,5,6-tetramethylphenyl)sulfonylamino]-2-naphthyl]pyrazole-3-carboxylic acid]"
2,1900 nM,"Cc1cc(C)c(C)c(S(=O)(=O)Nc2cc(-c3cncc(C(=O)O)c3)cc3ccccc23)c1C [Example 3, 5-[4-[(2,3,5,6-tetramethylphenyl)sulfonylamino]-2-naphthyl]pyridine-3-carboxylic acid]"
3,2100 nM,"Cc1cc(C)c(C)c(S(=O)(=O)Nc2cc(-c3cc(F)cc(C(=O)O)c3)cc3ccccc23)c1C [Example 5, 3-fluoro-5-[4-[(2,3,5,6-tetramethylphenyl)sulfonylamino]-2-naphthyl]benzoic acid]"
4,3300 nM,"Cc1cc(C)c(C)c(S(=O)(=O)Nc2cc(-c3cc(Cl)cc(C(=O)O)c3)cc3ccccc23)c1C [Example 7, 3-chloro-5-[4-[(2,3,5,6-tetramethylphenyl)sulfonylamino]-2-naphthyl]benzoic acid]"
5,1800 nM,"Cc1cc(C)c(C)c(S(=O)(=O)Nc2cc(-c3ccc(F)c(C(=O)O)c3)cc3ccccc23)c1C [Example 10, 2-fluoro-5-[4-[(2,3,5,6-tetramethylphenyl)sulfonylamino]-2-naphthyl]benzoic acid]"
6,5600 nM,"Cc1cc(C)c(C)c(S(=O)(=O)Nc2cc(-c3cccc(C(=O)O)c3F)cc3ccccc23)c1C [Example 6, 2-fluoro-3-[4-[(2,3,5,6-tetramethylphenyl)sulfonylamino]-2-naphthyl]benzoic acid]"
7,4100 nM,"Cc1cc(C)c(C)c(S(=O)(=O)Nc2cc(-c3ccc(O)c(C(=O)O)c3)cc3ccccc23)c1C [Example 2, 2-hydroxy-5-[4-[(2,3,5,6-tetramethylphenyl)sulfonylamino]-2-naphthyl]benzoic acid]"
8,12000 nM,"Cc1cc(C)c(C)c(S(=O)(=O)Nc2cc(-c3ccc(C(=O)O)s3)cc3ccccc23)c1C [Example 12, 5-[4-[(2,3,5,6-tetramethylphenyl)sulfonylamino]-2-naphthyl]thiophene-2-carboxylic acid]"
9,1600 nM,"Cc1cc(C)c(C)c(S(=O)(=O)Nc2cc(-c3ccc(Cl)c(C(=O)O)c3)cc3ccccc23)c1C [Example 8, 2-chloro-5-[4-[(2,3,5,6-tetramethylphenyl)sulfonylamino]-2-naphthyl]benzoic acid]"
